IC50 data for twelve molecules are collected here from BindingDB's records for doi:10.1016/S0960-894X(01)80539-4 (1994).

A word on the IC50: it is the point on the concentration scale where inhibition reaches its midpoint.

The target in this assay is Sigma-1 receptor (Cavia porcellus). As to the kind of experiment: In vitro binding affinity towards sigma receptor by the displacement of [3H]PPP from guinea pig brain. A general note: Displacement assays read how much labelled ligand stays bound in the presence of the test substance.
`OC(CCCN1CCN(c2ncc(F)cn2)CC1)c1ccc(F)c2ccccc12` (configuration not stated) [1-(4-Fluoro-naphthalen-1-yl)-4-[4-(5-fluoro-pyrimidin-2-yl)-piperazin-1-yl]-butan-1-ol]: the IC50 came out at 88 nM.

In the case of `Fc1ccc(SCCCN2CCN(c3ncc(F)cn3)CC2)cc1` [5-Fluoro-2-{4-[3-(4-fluoro-phenylsulfanyl)-propyl]-piperazin-1-yl}-pyrimidine], the IC50 amounted to 51 nM.

Molecule `O=S(=O)(CCCN1CCN(c2ncc(F)cn2)CC1)c1ccc(F)cc1` [5-Fluoro-2-{4-[3-(4-fluoro-benzenesulfonyl)-propyl]-piperazin-1-yl}-pyrimidine] yielded an IC50 of over 45 nM.

`OC(CCCN1CCN(c2ncc(F)cn2)CC1)C1CCCCC1` (configuration not stated) [1-Cyclohexyl-4-[4-(5-fluoro-pyrimidin-2-yl)-piperazin-1-yl]-butan-1-ol] showed an IC50 of 12 nM.

Molecule `O=C(OC(CCCN1CCN(c2ncc(F)cn2)CC1)c1ccc(F)cc1)c1ccccc1` (configuration not stated) [Benzoic acid 1-(4-fluoro-phenyl)-4-[4-(5-fluoro-pyrimidin-2-yl)-piperazin-1-yl]-butyl ester] came in with an IC50 of 3500 nM.

As for `Fc1ccc(CCCCN2CCN(c3ncc(F)cn3)CC2)cc1` [5-Fluoro-2-{4-[4-(4-fluoro-phenyl)-butyl]-piperazin-1-yl}-pyrimidine], the IC50 stood at 23 nM.

For `Fc1ccc(OCCCN2CCN(c3ncc(F)cn3)CC2)cc1` [5-Fluoro-2-{4-[3-(4-fluoro-phenoxy)-propyl]-piperazin-1-yl}-pyrimidine], the IC50 turned out to be 89 nM.

`O=C(NC(CCCN1CCN(c2ncc(F)cn2)CC1)C1CCCCC1)c1ccc(F)cc1` (configuration not stated) [N-{1-Cyclohexyl-4-[4-(5-fluoro-pyrimidin-2-yl)-piperazin-1-yl]-butyl}-4-fluoro-benzamide] had an IC50 of over 2 nM.

For `NC(CCCN1CCN(c2ncc(F)cn2)CC1)c1ccc(F)c2ccccc12` (configuration not stated) [1-(4-Fluoro-naphthalen-1-yl)-4-[4-(5-fluoro-pyrimidin-2-yl)-piperazin-1-yl]-butylamine], the IC50 came to 215 nM.

In turn, `NC(CCCN1CCN(c2ncc(F)cn2)CC1)C1CCCCC1` (configuration not stated) [1-Cyclohexyl-4-[4-(5-fluoro-pyrimidin-2-yl)-piperazin-1-yl]-butylamine] had an IC50 of 52 nM. This IC50 is about 4.1-fold lower than that of the molecule before.

As to `O=C(NC(CCCN1CCN(c2ncc(F)cn2)CC1)c1ccc(F)cc1)c1ccc(F)cc1` (configuration not stated) [4-Fluoro-N-{1-(4-fluoro-phenyl)-4-[4-(5-fluoro-pyrimidin-2-yl)-piperazin-1-yl]-butyl}-benzamide], the IC50 was over 100 nM.

`CC(=O)NC(CCCN1CCN(c2ncc(F)cn2)CC1)c1ccc(F)cc1` (configuration not stated) [N-{1-(4-Fluoro-phenyl)-4-[4-(5-fluoro-pyrimidin-2-yl)-piperazin-1-yl]-butyl}-acetamide] registered an IC50 of over 49 nM.
